Source: patent publication US4861798A, “Lipoxygenase inhibitory compounds” (Bristol-Myers Company, priority 1987, dated 1989)
pIC50: −log10 of the molar value. Read-outs that look alike come from different tables or passages of the source. Each block holds one compound with its values, some of them ahead of it.

Assays:
Type in all cases: cell-based
Human Platelet 12-LPO = molecular target: T1, Human Platelet 12-LPO (Homo sapiens, UniProt P18054); assay: Inhibition of 12-LPO, human platelet; conditions: for pIC50: 95% confidence interval; for inhibition at 100 µM: read-out: % I Human Platelet 12-LPO
T1 construct: Human neutrophils and platelets were obtained from the blood of normal volunteers; endogenous in cells; host or cells: human platelets from blood of normal volunteers
T1 sequence (P18054 1-663): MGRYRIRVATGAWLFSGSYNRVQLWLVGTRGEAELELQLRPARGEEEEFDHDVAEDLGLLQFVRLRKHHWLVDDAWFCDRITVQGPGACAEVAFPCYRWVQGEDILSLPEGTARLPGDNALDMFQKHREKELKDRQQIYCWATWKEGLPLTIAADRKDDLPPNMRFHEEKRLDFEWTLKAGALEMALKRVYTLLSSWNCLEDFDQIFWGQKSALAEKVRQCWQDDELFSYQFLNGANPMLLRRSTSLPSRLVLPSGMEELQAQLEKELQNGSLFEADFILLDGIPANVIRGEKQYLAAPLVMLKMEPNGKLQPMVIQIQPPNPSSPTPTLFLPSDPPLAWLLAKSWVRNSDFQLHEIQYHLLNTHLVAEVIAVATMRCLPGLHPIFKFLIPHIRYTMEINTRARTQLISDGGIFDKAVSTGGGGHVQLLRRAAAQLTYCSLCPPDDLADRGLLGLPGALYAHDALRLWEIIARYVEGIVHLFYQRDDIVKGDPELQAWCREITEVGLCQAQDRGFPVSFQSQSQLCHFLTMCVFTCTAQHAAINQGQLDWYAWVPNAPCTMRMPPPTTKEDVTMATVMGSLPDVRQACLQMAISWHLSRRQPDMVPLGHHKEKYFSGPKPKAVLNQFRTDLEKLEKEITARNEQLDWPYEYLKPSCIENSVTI

Human Platelet CO = molecular target: T2, Human Platelet CO (Homo sapiens, UniProt P23219); assay: Inhibition of CO, human platelet; conditions: for pIC50: 95% confidence interval given for some; for inhibition at 100 µM: read-out: % I Human Platelet CO; for inhibition at 100 µM / % I Human Platelet CO: @ 100 μM
T2 construct: Human neutrophils and platelets were obtained from the blood of normal volunteers; endogenous in cells; host or cells: human platelets from blood of normal volunteers

[1] = molecular target: T3, 5-lipoxygenase (Human Leukocyte/PMNL 5-LPO) (Homo sapiens, UniProt P09917); assay: Inhibition of 5-lipoxygenase (5-HETE formation) in human neutrophil/platelet system; conditions: for % Inhibition at 100 μm: 4-alkoxyphenyl compounds
T3 construct: Human neutrophils and platelets were obtained from the blood of normal volunteers; endogenous in cells; host or cells: human blood leukocytes (neutrophils) of normal volunteers, with 0.1 to 0.5 platelets per leukocyte
T3 sequence (P09917 1-674): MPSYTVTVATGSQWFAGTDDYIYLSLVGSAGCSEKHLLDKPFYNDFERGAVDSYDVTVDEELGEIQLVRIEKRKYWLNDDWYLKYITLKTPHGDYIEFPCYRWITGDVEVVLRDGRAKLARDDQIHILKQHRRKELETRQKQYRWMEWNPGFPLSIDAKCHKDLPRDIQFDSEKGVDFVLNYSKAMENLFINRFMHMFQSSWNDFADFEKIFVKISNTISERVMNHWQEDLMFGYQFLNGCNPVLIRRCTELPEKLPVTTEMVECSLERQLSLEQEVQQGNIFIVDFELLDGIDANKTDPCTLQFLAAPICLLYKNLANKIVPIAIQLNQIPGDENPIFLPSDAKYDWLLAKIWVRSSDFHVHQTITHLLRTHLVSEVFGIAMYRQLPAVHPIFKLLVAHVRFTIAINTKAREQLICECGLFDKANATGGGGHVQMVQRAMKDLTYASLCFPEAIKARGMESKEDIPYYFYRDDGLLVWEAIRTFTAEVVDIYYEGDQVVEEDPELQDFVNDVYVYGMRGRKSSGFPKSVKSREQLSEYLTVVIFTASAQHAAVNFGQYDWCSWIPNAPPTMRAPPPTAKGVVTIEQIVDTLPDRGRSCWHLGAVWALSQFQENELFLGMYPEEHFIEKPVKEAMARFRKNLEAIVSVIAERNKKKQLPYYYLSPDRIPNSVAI
Source text: This test is a measure of the inhibition of the synthesis of lipoxygenase products generated by human neutrophils and platelets. The protocol is similar to that described in the article "Comparative Effects of Indomethacin, Acetylenic Acids, 15-HETE, NDGA and BW755C on the Metabolism of Arachidonic Acid in Human Leukocytes and Platelets", H. Solari, P. Braquet and P. Borgeat, Prost. Leuk. Med. 13, pp. 53-60, 1984.
Human neutrophils and platelets were obtained from the blood of normal volunteers. The blood was collected into tubes containing EDTA as an anticoagulant. The blood was centrifuged at 250×g for 15 minutes and the platelet rich plasma was removed. The cell fraction was mixed with an equal volume of 0.9% saline containing 10 mM dextrose and resuspended in Dulbecco's phosphate buffered saline (PBS) without Mg^++ and Ca^++ and was counted. The cell suspension was adjusted to give a leukocyte count of 2-3×10^7 cells/ml.
Test compounds were dissolved in ethanol and added to polypropylene tubes. To control tubes (drug-free) only ethanol was added. The ethanol was evaporated to dryness under a stream of argon and then 0.1 ml of the cell suspension (2-3×10^6 cells) was added. This mixture was pre-incubated for 5 minutes at 37° and then the reaction was initiated by addition of ^3 H-arachidonic acid, calcium ionophore (A23187), and calcium ion. The final concentration of each component was: arachidonic acid, 10 uM; A23187, […]; calcium ion, […]. After 5 minutes the incubations were stopped by addition of an equal volume of methanol. The tubes were spun at 11,000 g for 2 minutes to pellet the precipitated protein. The supernatant was analyzed by HPLC for 5-HETE. The formation of this product is indicative of 5-lipoxygenase activity. Test drugs were evaluated for their ability to inhibit 5-HETE formation. Percent inhibition of varying concentrations of test drugs was determined in duplicate by comparing the peak quantitation in the presence and absence (control) of drug. […] The IC50 values were calculated from log-dose response curves of pooled data from at least two experiments by linear regression analysis.
The activity was tested by the same method as in the previous example.
The enzyme inhibitory activity of these compounds was tested by the same method.

[2] = FIG. 1 table, 95% confidence interval, read-out: IC50 Human PMNL 5-LPO
[3] = PMNL, read-out: % I Human PMNL 5-LPO
[4] = Table I, R=H, phenylalkyl hydroxamic acids, read-out: IC50 5-LPO (Inhibition of Human Leukocyte 5-LPO)
[5] = ring-substituted 9-phenylnonanohydroxamic acids, read-out: IC50 (5-lipoxygenase)
[6] = text comparison with prior-art compound, read-out: IC50 in the 5-lipoxygenase inhibition test

T2 sequence (P23219 24-599): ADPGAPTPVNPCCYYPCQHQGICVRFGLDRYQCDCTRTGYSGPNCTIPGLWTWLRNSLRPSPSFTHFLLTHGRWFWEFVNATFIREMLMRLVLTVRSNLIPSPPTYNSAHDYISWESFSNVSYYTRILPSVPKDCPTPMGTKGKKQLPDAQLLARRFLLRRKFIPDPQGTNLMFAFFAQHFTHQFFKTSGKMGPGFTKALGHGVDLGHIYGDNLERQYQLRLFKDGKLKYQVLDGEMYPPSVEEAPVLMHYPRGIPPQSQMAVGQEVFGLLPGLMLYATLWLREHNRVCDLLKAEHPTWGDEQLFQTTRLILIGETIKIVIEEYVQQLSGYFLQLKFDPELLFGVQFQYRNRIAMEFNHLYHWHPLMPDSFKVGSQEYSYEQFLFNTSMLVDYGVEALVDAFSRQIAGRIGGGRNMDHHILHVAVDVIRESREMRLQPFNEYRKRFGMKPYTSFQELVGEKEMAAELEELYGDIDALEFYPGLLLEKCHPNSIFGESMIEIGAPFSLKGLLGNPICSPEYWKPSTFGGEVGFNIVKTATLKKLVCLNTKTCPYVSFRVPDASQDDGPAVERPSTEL

pIC50 (Human Platelet 12-LPO): 5.60
pIC50 (Human Platelet CO): 5.68
pIC50 [1, 2]: 6.77
Compound: CN(O)C(=O)CCCCCCCCc1ccccc1 [BMY30223]

inhibition at 100 µM [1, 3]: 22%
pIC50 [1, 4]: < 4.00
Compound: O=C(CCCCc1ccccc1)NO [BMY30083]

pIC50 [1, 4]: < 4.30
Compound: O=C(CCCCCCCCCCCCc1ccccc1)NO [n=12, reference compound]

pIC50 (Human Platelet 12-LPO): 4.57
pIC50 (Human Platelet CO): 5.12
pIC50 [1, 2]: 6.85
Compound: CC(C)N(O)C(=O)CCCCCCCCCc1ccccc1 [BMY30218]

% Inhibition at 100 μm [1]: 45.8%
Compound: CCCCCCOc1ccc(CCCCCCCCC(=O)N(O)C(C)C)cc1 [BMY 30240, N-isopropyl 9(4-hexyloxyphenyl)nonanohydroxamic acid]

inhibition at 100 µM (Human Platelet 12-LPO): 59%
inhibition at 100 µM (Human Platelet CO): 25%
pIC50 [1, 2]: 6.05
Compound: CC(C)N(O)C(=O)CCCCc1ccccc1 [BMY30226]

pIC50 [1, 5]: 5.62
Compound: COc1ccc(CCCCCCCCC(=O)NO)cc1 [BMY 30173, 9(4-Methoxyphenyl)nonanohydroxamic acid]

inhibition at 100 µM (Human Platelet 12-LPO): 31%
inhibition at 100 µM (Human Platelet CO): 7%
pIC50 [1, 2]: 6.15
Compound: CC(C)N(O)C(=O)CCCc1ccccc1 [BMY30227]

inhibition at 100 µM (Human Platelet 12-LPO): 17%
% I Human Platelet CO (Human Platelet CO): inactive
pIC50 [1, 2]: 4.60
Compound: CN(O)C(=O)CCCCCCCCCCCCCCc1ccccc1 [BMY30228]

pIC50 [1, 5]: 5.21
Compound: Cc1cccc(CCCCCCCCC(=O)NO)c1 [BMY 30182, 9(3-methylphenyl)nonanohydroxamic acid]

pIC50 [1, 5]: 5.27
Compound: COc1cccc(CCCCCCCCC(=O)NO)c1 [BMY 30181, 9(3-methoxyphenyl)nonanohydroxamic acid]

pIC50 [1, 4]: < 4.00
Compound: O=C(Cc1ccccc1)NO [n=1, reference compound]

pIC50 [1, 4]: < 4.00
Compound: O=C(NO)c1ccccc1 [n=0, reference compound]

pIC50 (Human Platelet 12-LPO): 5.44
pIC50 (Human Platelet CO): 5.54
pIC50 [1, 2]: 7.00
Compound: CN(O)C(=O)CCCCCCCc1ccccc1 [BMY30208, N-methyl-8-phenyloctanohydroxamic acid]

pIC50 [1, 4]: < 4.00
Compound: O=C(CCc1ccccc1)NO [n=2, reference compound]

% Inhibition at 100 μm [1]: 0%
Compound: CCCCCCOc1ccc(CCCCCCCCC(=O)NO)cc1 [BMY 30230, 9(4-Hexyloxyphenyl)nonanohydroxamic acid]

pIC50 (Human Platelet 12-LPO): 4.86
pIC50 (Human Platelet CO): 4.74
pIC50 [1, 2]: 6.74
Compound: CC(C)N(O)C(=O)CCCCCCCCc1ccccc1 [BMY30224]

pIC50 (Human Platelet 12-LPO): 5.26
pIC50 (Human Platelet CO): 5.34
pIC50 [1, 2]: 7.05
Compound: CN(O)C(=O)CCCCCCCCCc1ccccc1 [BMY30217]

inhibition at 100 µM (Human Platelet 12-LPO): 10%
% I Human Platelet CO (Human Platelet CO): inactive
pIC50 [1, 2]: 4.10
Compound: CC(C)N(O)C(=O)CCCCCCCCCCCCCCc1ccccc1 [BMY30229]

inhibition at 100 µM [1, 3]: 11%
pIC50 [1, 4]: < 4.00
Compound: O=C(CCCc1ccccc1)NO [BMY30077]

pIC50 [1, 4]: 4.99
Compound: O=C(CCCCCCCCCCCc1ccccc1)NO [Compound 2e]

Compound: CCCCOc1ccc(CCCCCCCCC(=O)NO)cc1 [BMY 30239, 9(4-Butoxyphenyl)nonanohydroxamic acid]
% Inhibition at 100 μm [1]: 56.0%

pIC50 [1, 4]: 4.96
Compound: O=C(CCCCCCCCCCc1ccccc1)NO [Compound 2d]

pIC50 (Human Platelet 12-LPO): 4.90
pIC50 (Human Platelet CO): 4.51
pIC50 [1, 2]: 7.15
Compound: CC(C)N(O)C(=O)CCCCCCc1ccccc1 [BMY30222]

inhibition at 50 µM ([1]; PMNL, @ 50 μM, read-out: % I Human PMNL 5-LPO): 7.5%
pIC50 [1, 4]: < 4.00
Compound: O=C(CCCCCCCCCCCCCCc1ccccc1)NO [BMY30152]

inhibition at 100 µM (Human Platelet 12-LPO): 53%
pIC50 (Human Platelet CO): 4.59
pIC50 [1, 2]: 4.91
Compound: O=C(CCCCCCCc1ccccc1)NO [Compound 2b]

pIC50 [1, 5]: 5.21
Compound: O=C(CCCCCCCCc1ccc(Cl)cc1)NO [BMY 30174, 9(4-chlorophenyl)nonanohydroxamic acid]

% Inhibition at 100 μm [1]: 95.9%
Compound: CCCCCCOc1ccc(CCCCCCCCC(=O)N(C)O)cc1 [BMY 30241, N-Methyl 9(4-Hexyloxyphenyl)nonanohydroxamic acid]

pIC50 [1, 6]: < 4.00
Compound: O=C(CCCCCc1ccccc1)NO [reference compound]

inhibition at 100 µM (Human Platelet 12-LPO): 10%
pIC50 (Human Platelet CO): 4.49
pIC50 [1, 2]: 4.94
Compound: O=C(CCCCCCCCCc1ccccc1)NO [Compound 2c]

pIC50 [1, 6]: 4.68
Compound: O=C(CCCCCCc1ccccc1)NO [Compound 2a]
